Laboratory results taken from patent US11958813B2, “Uracil compound containing carboxylate fragment, preparation method therefor, and herbicidal composition and use thereof” (JIANGSU FLAG CHEMICAL INDUSTRY CO., LTD., priority 2021, dated 2024).

Key:
Experiment in all cases: Greenhouse herbicidal activity test, post-emergence
Assay type in all cases: in vivo
Alopecurus japonicus = settings: determined 21 days later; for inhibition at 7.5 g/ha / inhibition at 15 g/ha: Alopecurus japonicus, 504 h, read-out: fresh weight inhibition rate, Alopecurus japonicus
Excerpt: (§1) A herbicidal activity test method for the compounds of the present invention was as follows:
(§2) Post-emergence: an appropriate quantity of seeds of gramineous weeds (Echinochloa crusgalli, Eleusine indica, Digitaria sanguinalis, Alopecurus japonicus, Beckmannia syzigachne, Leptochloa chinensis, Polypogon fugax, Alopecurus aequalis, Lolium multiflorum, and Poa annua), broad-leaved weeds (Eclipta prostrata, Amaranthus retroflexus, Brassica juncea, Malachium aquaticum, Conyza canadensis, and Sesbania cannabina), and Cyperus iria were sown in plastic pots having a diameter of 7 cm and holes at the bottom and filled with nutrient soil (sandy soil, pH 6.1, organic matter 1%) respectively, the seeds were covered with an appropriate amount of soil after being sown, then the soil was wetted with water from the bottom, the seeds were cultured in a constant-temperature illuminated culture room until a 2-4 leaf stage, and stems and leaves underwent spray treatment. After the treatment, the test materials were placed in a laboratory and cultured in the constant-temperature illuminated culture room after the liquid was naturally dry in the shade, and results were determined 21 days later.
(§3) According to the foregoing test method, a parallel experiment was carried out on herbicidal activities of some compounds of the general formula (I), the compound Butafenacil (compound 47 in the patent specification) specifically disclosed in U.S. Pat. No. 5,183,492A, and the compound CK (compound 1 in the patent specification) specifically disclosed in U.S. Pat. No. 5,183,492A, at application doses of 7.5 g a.i./ha and 15 g a.i./ha.

Polypogon fugax = settings: determined 21 days later; for inhibition at 7.5 g/ha / inhibition at 15 g/ha: Polypogon fugax, 504 h, read-out: fresh weight inhibition rate, Polypogon fugax
Excerpt: as §1, §2, §3

Sesbania cannabina = settings: determined 21 days later; for inhibition at 7.5 g/ha / inhibition at 15 g/ha: Sesbania cannabina, 504 h, read-out: fresh weight inhibition rate, Sesbania cannabina
Excerpt: as §1, §2, §3

| SMILES | inhibition at 7.5 g/ha (Alopecurus japonicus; dose 7.5 g a.i./ha) | inhibition at 15 g/ha (Alopecurus japonicus; dose 15 g a.i./ha) | inhibition at 7.5 g/ha (Polypogon fugax; dose 7.5 g a.i./ha) | inhibition at 15 g/ha (Polypogon fugax; dose 15 g a.i./ha) | inhibition at 7.5 g/ha (Sesbania cannabina; dose 7.5 g a.i./ha) | inhibition at 15 g/ha (Sesbania cannabina; dose 15 g a.i./ha) | fresh weight inhibition rate, Alopecurus japonicus (Alopecurus japonicus; dose 7.5 g a.i./ha) | fresh weight inhibition rate, Alopecurus japonicus (Alopecurus japonicus; dose 15 g a.i./ha) | fresh weight inhibition rate, Polypogon fugax (Polypogon fugax; dose 7.5 g a.i./ha) | fresh weight inhibition rate, Polypogon fugax (Polypogon fugax; dose 15 g a.i./ha) | fresh weight inhibition rate, Sesbania cannabina (Sesbania cannabina; dose 7.5 g a.i./ha) | fresh weight inhibition rate, Sesbania cannabina (Sesbania cannabina; dose 15 g a.i./ha) |
| --- | --- | --- | --- | --- | --- | --- | --- | --- | --- | --- | --- | --- |
| C=CCOC(=O)C(C)(C)OC(=O)c1cc(-n2c(=O)cc(C(F)(F)F)n(C)c2=O)ccc1Cl [Butafenacil, reference compound] | < 55% | < 55% | < 55% | 55 to 70% | 55 to 70% | 70 to 85% | – | – | – | – | – | – |
| COC(=O)C(C)OC(=O)c1cc(-n2c(=O)cc(C(F)(F)F)n(C)c2=O)c(F)cc1Cl (stereo not drawn) [CK, reference compound] | < 55% | 55 to 70% | < 55% | 55 to 70% | 55 to 70% | 70 to 85% | – | – | – | – | – | – |
| COCCOC(=O)COC(=O)c1cc(-n2c(=O)cc(C(F)(F)F)n(C)c2=O)c(F)cc1Cl [Compound 3] | – | – | – | – | – | – | B (B indicates that the inhibition rate was greater than or equal to 70% to less than 85%) | A (A indicates that the inhibition rate was greater than or equal to 85% to 100%) | B (B indicates that the inhibition rate was greater than or equal to 70% to less than 85%) | A (A indicates that the inhibition rate was greater than or equal to 85% to 100%) | A (A indicates that the inhibition rate was greater than or equal to 85% to 100%) | A (A indicates that the inhibition rate was greater than or equal to 85% to 100%) |
| COCCOC(=O)C(C)(C)OC(=O)c1cc(-n2c(=O)cc(C(F)(F)F)n(C)c2=O)c(F)cc1Cl [Compound 207] | – | – | – | – | – | – | A (A indicates that the inhibition rate was greater than or equal to 85% to 100%) | A (A indicates that the inhibition rate was greater than or equal to 85% to 100%) | A (A indicates that the inhibition rate was greater than or equal to 85% to 100%) | A (A indicates that the inhibition rate was greater than or equal to 85% to 100%) | A (A indicates that the inhibition rate was greater than or equal to 85% to 100%) | A (A indicates that the inhibition rate was greater than or equal to 85% to 100%) |
| C=CCOCCOC(=O)C(C)(C)OC(=O)c1cc(-n2c(=O)cc(C(F)(F)F)n(C)c2=O)c(F)cc1Cl [Compound 214] | – | – | – | – | – | – | A (A indicates that the inhibition rate was greater than or equal to 85% to 100%) | A (A indicates that the inhibition rate was greater than or equal to 85% to 100%) | A (A indicates that the inhibition rate was greater than or equal to 85% to 100%) | A (A indicates that the inhibition rate was greater than or equal to 85% to 100%) | A (A indicates that the inhibition rate was greater than or equal to 85% to 100%) | A (A indicates that the inhibition rate was greater than or equal to 85% to 100%) |
| COCCOC(=O)C1(OC(=O)c2cc(-n3c(=O)cc(C(F)(F)F)n(C)c3=O)c(F)cc2Cl)CC1 [Compound 258] | – | – | – | – | – | – | A (A indicates that the inhibition rate was greater than or equal to 85% to 100%) | A (A indicates that the inhibition rate was greater than or equal to 85% to 100%) | A (A indicates that the inhibition rate was greater than or equal to 85% to 100%) | A (A indicates that the inhibition rate was greater than or equal to 85% to 100%) | A (A indicates that the inhibition rate was greater than or equal to 85% to 100%) | A (A indicates that the inhibition rate was greater than or equal to 85% to 100%) |
